Key:
[1] = system: STZ induced diabetic nephropathy in rats; experiment: Study 3: HCQ and its combination with Losartan, Telmisartan, Azilsartan and Ramipril; format: in vivo, Wistar rats; conditions: oral once daily 8 weeks
Procedure: The methods described in Terri et al, Diabetes Volume, 1997, 46:1612-1618, and Takashi et al, Jpn J. Pharmacol, 1997, 75, 59-64, were followed for inducing Diabetes in rats by injecting Streptozotocin. The Efficacy of the drugs was tested in two different models, one involving comparison with diabetic control (i.e. Diabetic Rats not treated with any medication) and the other involving comparison with the anti-diabetic control group (i.e. Diabetic rats administered Glimepiride) in two separate studies.
Male Wistar rats weighing 150-350 g were divided randomly into 29 groups consisting of 6 animals each. Diabetes was induced in rats by single administration of streptozotocin (55 mg/kg/i.p) dissolved in 0.1 M-citrate buffer, pH 4.5. Group 1 (normal control) consisted of normal rats that neither received streptozotocin nor any test drug; Group 2 consisted of normal rats treated with vehicle, Group 3 served as Streptozotocin (STZ) induced diabetic control. Group 4 was diabetic rats treated with Losartan (LT) (5.5 mg/kg); Group 5 was diabetic rats treated with LT (11 mg/kg); Group 6 was diabetic rats treated with Hydroxychloroquine (HCQ) (22.5 mg/kg), Group 7 was diabetic rats treated with HCQ (45 mg/kg); Group 8 was diabetic rats treated with combination of LT (5.5 mg/kg) and HCQ (22.5 mg/kg); Group 9 was diabetic rats treated with combination of LT (5.5 mg/kg) and HCQ (45 mg/kg); Group 10 was diabetic rats treated with LT (11 mg/kg) and HCQ (22.5 mg/kg); Group 11 was diabetic rats treated with LT (11 mg/kg) and HCQ (45 mg/kg); Group 12 was diabetic rats treated with Telmisartan (TL) (5 mg/kg); Group 13 was diabetic rats treated with Telmisartan (TL) (10 mg/kg); Group 14 was diabetic rats treated with the combination of TL (5 mg/kg) and HCQ (22.5 mg/kg); Group 15 was diabetic rats treated with the combination of TL (5 mg/kg) and HCQ (45 mg/kg); Group 16 was diabetic rats treated with the combination of TL (10 mg/kg) and HCQ (22.5 mg/kg); Group 17 was diabetic rats treated with the combination of TL (10 mg/kg) and HCQ (45 mg/kg); Group 18 was diabetic rats treated with Azilsartan (AZ) (2 mg/kg); Group 19 was diabetic rats treated with Azilsartan (AZ) (4 mg/kg); Group 20 was diabetic rats treated with combination of AZ (2 mg/kg) and HCQ (22.5 mg/kg); Group 21 was diabetic rats treated with combination of AZ (2 mg/kg) and HCQ (45 mg/kg); Group 22 was diabetic rats treated with combination of AZ (4 mg/kg) and HCQ (22.5 mg/kg); Group 23 diabetic rats treated with combination of AZ (4 mg/kg) and HCQ (45 mg/kg); Group 24 was diabetic rats treated with Ramipril (RM) (0.2 mg/kg); Group 25 was diabetic rats treated with RM (2.3 mg/kg); Group 26 was diabetic rats treated with combination of RM […]) and HCQ (22.5 mg/kg); Group 27 was diabetic rats treated with combination of RM (0.2 mg/kg) and HCQ (45 mg/kg); Group 28 was diabetic rats treated with combination of RM (2.3 mg/kg) and HCQ (22.5 mg/kg); Group 29 was diabetic rats treated with combination of RM (2.3 mg/kg) and HCQ (45 mg/kg). The study drugs (LT and HCQ) were dissolved in distilled water and other study drugs (AZ, RM and TL) were suspended in 0.5% w/v sodium carboxy methyl cellulose (CMC) and administered orally once a day for eight weeks. Biochemical parameters like serum urea, serum creatinine, serum protein, and renal oxidative stress parameters like TBARS and GSH were assessed after the completion of eighth week of the study.

[2] = system: Streptozocin (STZ) induced diabetic rats; experiment: Study 1: HCQ and its combination with Losartan in renal damage, comparison with diabetic control; format: in vivo, Wistar rats; conditions: after 8 weeks oral once daily, Losartan 5.5 mg/kg, Hydroxychloroquine 22.5 mg/kg; for GSH (% Naive) / GSH Mean ± SEM / TBARS (% Naive) / TBARS Mean ± SEM: kidney homogenate
Procedure: The Efficacy of the drugs was tested in two different models, one involving comparison with diabetic control (i.e. Diabetic Rats not treated with any medication) and the other involving comparison with the anti-diabetic control group (i.e. Diabetic rats administered Glimepiride) in two separate studies. 25 male Wistar rats weighing 150-250 g were divided randomly into 5 groups consisting of 5 animals each. Diabetes was induced in rats by single administration of streptozotocin (55 mg/kg/i.p) dissolved in 0.1 M-citrate buffer, pH 4.5. Group 1 (normal control) consisted of normal rats that neither received Streptozotocin (STZ) nor any test drug; Group 2 served as streptozotocin induced diabetic control. Group 3 was diabetic rats treated with Losartan (LT) (5.5 mg/kg); Group 4 was diabetic rats treated with Hydroxychloroquine (HCQ) (22.5 mg/kg), Group 5 was diabetic rats treated with combination of HCQ (22.5 mg/kg) and LT (5.5 mg/kg). The study drugs were dissolved/suspended in distilled water and administered orally once a day for eight weeks. Blood glucose levels and renal oxidative stress parameters including TBARS, GSH and total Protein in Kidney Homogenate were assessed after the completion of eighth week of the study.

[3] = dose mg/kg: LT 5.5, TL 5, AZ 2, RM 0.2, HCQ 22.5, alone or combined with HCQ 22.5
[4] = dose mg/kg: LT 11, TL 10, AZ 4, RM 2.3, HCQ 45, alone or combined with HCQ 45

`CCOc1nc2cccc(C(=O)O)c2n1Cc1ccc(-c2ccccc2-c2nc(=O)o[nH]2)cc1` [Azilsartan] showed a Creatinine clearance [1, 3] of 0.69 ± 0.05 mL/min, a GSH [1, 3] of 9.54 ± 1.54 nM/mg and a Serum creatinine [1, 3] of 0.98 ± 0.07 mg/dL. For the same compound, the Serum protein [1, 3] was 5.79 ± 0.37 g/dL, the Serum urea [1, 3] was 89.83 ± 4.67 mg/dL and the TBARS [1, 3] was 0.624 ± 0.11 nM/mg. It also gave a Urea clearance [1, 3] of 0.41 ± 0.07 mL/min, a Creatinine clearance [1, 4] of 0.74 ± 0.04 mL/min and a GSH [1, 4] of 13.49 ± 0.90 nM/mg. The Serum creatinine [1, 4] was 0.87 ± 0.04 mg/dL, the Serum protein [1, 4] was 6.76 ± 0.16 g/dL and the Serum urea [1, 4] was 75.94 ± 4.11 mg/dL. For the same compound, the TBARS [1, 4] was 0.540 ± 0.04 nM/mg and the Urea clearance [1, 4] was 0.44 ± 0.03 mL/min.

In the case of `CCN(CCO)CCCC(C)Nc1ccnc2cc(Cl)ccc12` (centres unmarked) [Hydroxychloroquine, 2-[{4-[(7-chloroquinolin-4-yl)amino]pentyl}(ethyl)amino]ethanol], the “Blood glucose level (% Control)” value [2] is reported as “(62.64)) % Control”, the “Blood glucose level Mean ± SEM” value [2] is reported as 369.9 ± 42.3 mg/dL and the “Total Protein in Kidney Homogenate (% Naive)” value [2] is reported as “(190.71) % Naive”. For the same compound, the “Total Protein in Kidney Homogenate Mean ± SEM” value [2] was 1098.00 ± 23.12 µg/mL, the “GSH (% Naive)” value [2] was “(41.92) % Naive” and the “GSH Mean ± SEM” value [2] was 0.827 ± 0.08 nM/mg. The “TBARS (% Naive)” value [2] was “(178.29) % Naive”, the “TBARS Mean ± SEM” value [2] was 0.772 ± 0.06 nM/mg and the Creatinine clearance [1, 3] was 0.60 ± 0.06 mL/min. The GSH [1, 3] was 8.59 ± 0.76 nM/mg, the Serum creatinine [1, 3] was 0.87 ± 0.07 mg/dL and the Serum protein [1, 3] was 5.57 ± 0.20 g/dL. It also gave a Serum urea [1, 3] of 91.29 ± 7.29 mg/dL, a TBARS [1, 3] of 0.726 ± 0.06 nM/mg and a Urea clearance [1, 3] of 0.36 ± 0.03 mL/min. For the same compound, the Creatinine clearance [1, 4] was 0.67 ± 0.10 mL/min, the GSH [1, 4] was 14.29 ± 1.33 nM/mg and the Serum creatinine [1, 4] was 0.74 ± 0.12 mg/dL. It also gave a Serum protein [1, 4] of 5.95 ± 0.31 g/dL, a Serum urea [1, 4] of 83.64 ± 6.60 mg/dL and a TBARS [1, 4] of 0.608 ± 0.06 nM/mg. It also gave a Urea clearance [1, 4] of 0.42 ± 0.04 mL/min.

`CCCCc1nc(Cl)c(CO)n1Cc1ccc(-c2ccccc2-c2nn[nH]n2)cc1` [Losartan] was tested, and the “Blood glucose level (% Control)” value [2] was “(98.57) % Control”, the “Blood glucose level Mean ± SEM” value [2] was 582.1 ± 00^ mg/dl and the “Total Protein in Kidney Homogenate (% Naive)” value [2] was “(204.95) % Naive”. The “Total Protein in Kidney Homogenate Mean ± SEM” value [2] was 1180.00 µg/mL, the “GSH (% Naive)” value [2] was “(41.92) % Naive” and the “GSH Mean ± SEM” value [2] was 0.827 nM/mg. For the same compound, the “TBARS (% Naive)” value [2] was “(186.61) % Naive”, the “TBARS Mean ± SEM” value [2] was 0.808 nM/mg and the Creatinine clearance [1, 3] was 0.59 ± 0.06 mL/min. It also gave a GSH [1, 3] of 8.66 ± 0.48 nM/mg, a Serum creatinine [1, 3] of 1.23 ± 0.18 mg/dL and a Serum protein [1, 3] of 5.23 ± 0.31 g/dL. For the same compound, the Serum urea [1, 3] was 101.45 ± 2.69 mg/dL, the TBARS [1, 3] was 0.760 ± 0.05 nM/mg and the Urea clearance [1, 3] was 0.33 ± 0.02 mL/min. It also gave a Creatinine clearance [1, 4] of 0.67 ± 0.12 mL/min, a GSH [1, 4] of 12.78 ± 1.48 nM/mg and a Serum creatinine [1, 4] of 0.99 ± 0.05 mg/dL. It also gave a Serum protein [1, 4] of 5.75 ± 0.23 g/dL, a Serum urea [1, 4] of 93.10 ± 4.45 mg/dL and a TBARS [1, 4] of 0.670 ± 0.05 nM/mg. For the same compound, the Urea clearance [1, 4] was 0.44 ± 0.03 mL/min.

`CCOC(=O)[C@H](CCc1ccccc1)N[C@@H](C)C(=O)N1[C@H](C(=O)O)C[C@@H]2CCC[C@@H]21` [Ramipril] showed a Creatinine clearance [1, 3] of 0.54 ± 0.05 mL/min, a GSH [1, 3] of 8.48 ± 0.59 nM/mg and a Serum creatinine [1, 3] of 0.90 ± 0.05 mg/dL. The Serum protein [1, 3] was 5.30 ± 0.36 g/dL, the Serum urea [1, 3] was 98.33 ± 6.15 mg/dL and the TBARS [1, 3] was 0.716 ± 0.06 nM/mg. The Urea clearance [1, 3] was 0.41 ± 0.05 mL/min, the Creatinine clearance [1, 4] was 0.61 ± 0.07 mL/min and the GSH [1, 4] was 10.57 ± 0.37 nM/mg. For the same compound, the Serum creatinine [1, 4] was 0.85 ± 0.06 mg/dL, the Serum protein [1, 4] was 5.67 ± 0.27 g/dL and the Serum urea [1, 4] was 87.83 ± 5.23 mg/dL. It also gave a TBARS [1, 4] of 0.614 ± 0.06 nM/mg and a Urea clearance [1, 4] of 0.45 ± 0.05 mL/min.

Work on `CCCc1nc2c(C)cc(-c3nc4ccccc4n3C)cc2n1Cc1ccc(-c2ccccc2C(=O)O)cc1` [Telmisartan] yielded a Creatinine clearance [1, 3] of 0.73 ± 0.07 mL/min, a GSH [1, 3] of 9.65 ± 1.24 nM/mg and a Serum creatinine [1, 3] of 1.02 ± 0.13 mg/dL. It also gave a Serum protein [1, 3] of 5.94 ± 0.46 g/dL, a Serum urea [1, 3] of 92.39 ± 4.06 mg/dL and a TBARS [1, 3] of 0.675 ± 0.07 nM/mg. The Urea clearance [1, 3] was 0.45 ± 0.05 mL/min, the Creatinine clearance [1, 4] was 0.77 ± 0.04 mL/min and the GSH [1, 4] was 13.82 ± 0.34 nM/mg. It also gave a Serum creatinine [1, 4] of 0.78 ± 0.07 mg/dL, a Serum protein [1, 4] of 6.53 ± 0.40 g/dL and a Serum urea [1, 4] of 82.71 ± 6.53 mg/dL. The TBARS [1, 4] was 0.560 ± 0.06 nM/mg and the Urea clearance [1, 4] was 0.47 ± 0.04 mL/min.

From patent US20160030415A1, “TREATMENT AND PROPHYLAXIS OF KIDNEY DISEASES” (priority 2013, published 2016)
